Among the test systems are OVCAR-5; U-251; HCT-15; OVCAR-4; SK-MEL-2; SK-MEL-5; SNB-19; COLO 205; HL-60; NCI-H522; BT-549; HT-29; NCI-H23; MOLT-4; MCF7; PC-3; UACC-62; RPMI-8226; MDA-N; CCRF-CEM.
Holding throughout (assay): NCI tumour cell line growth inhibition, 48 h

Values joined by “and” are separate entries in the source; they are usually repeats but may differ in a detail not shown here. Equal entries are not always repeated.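 Values below derive from 48-hour exposures of cells grown in 96-well plates, with endpoints linearly interpolated between the two concentrations bracketing the appropriate inhibition level. At the GI50, growth is halved.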 Active and inactive are the calls of the source. No stated cut-off is given here; in the data, active = GI50 up to about 1.1 µM and inactive = higher. Some results are limits rather than exact numbers.

Take `Cn1c(C(C)(C)OC(=O)Oc2ccccc2)cnc1[N+](=O)[O-]`: the GI50 in the experiment on OVCAR-5 was > 100 µM (inactive); in the experiment with U-251 it was > 100 µM (inactive); in the experiment on HCT-15, > 100 µM; in the experiment on OVCAR-4, 38.7 µM (inactive); in the experiment with SK-MEL-2 it was > 100 µM (inactive); in the experiment on SK-MEL-5, 53.3 µM (inactive). In addition, the GI50 with SNB-19 was > 100 µM (inactive); in the experiment with COLO 205, 71.1 µM (inactive); in the experiment on HL-60, 36.5 µM (inactive); in the experiment with NCI-H522, 70.8 µM (inactive); with BT-549 it was > 100 µM (inactive); in the experiment with HT-29, 34 µM (inactive). Besides, the GI50 is > 100 µM (inactive) with NCI-H23; 16.7 µM (inactive) in the experiment with MOLT-4; 63 µM (inactive) with MCF7; > 100 µM (inactive) in the experiment with PC-3; 55.6 µM (inactive) with UACC-62; 21 µM (inactive) in the experiment with RPMI-8226.

`C=C/C(C)=C\CC1[C@](C)(O)CC[C@H]2C(C)(C)C(O)CC[C@]12C` (some centres undefined): the GI50 with OVCAR-5 was > 100 µM (inactive); with MDA-N it was > 100 µM (inactive); in the experiment with U-251, > 100 µM (inactive); in the experiment with HCT-15, > 100 µM; with OVCAR-4, > 100 µM (inactive); with SK-MEL-2, > 100 µM (inactive). The GI50 in the experiment on SK-MEL-5 was 84.1 µM (inactive); in the experiment with SNB-19 it was > 100 µM (inactive); in the experiment on COLO 205, > 100 µM (inactive); with HL-60 it was 17.7 µM (inactive); in the experiment with NCI-H522 it was 91.4 µM (inactive); in the experiment on HT-29, 44.3 µM (inactive). For the same molecule, the GI50 in the experiment with CCRF-CEM was 27.5 µM (inactive); in the experiment with NCI-H23, 55.8 µM (inactive); in the experiment with MOLT-4, 33.8 µM (inactive); in the experiment with MCF7, 70.1 µM (inactive); in the experiment with PC-3 it was 70 µM (inactive); in the experiment on UACC-62, > 100 µM (inactive). Moreover, the GI50 with RPMI-8226 is 42.6 µM (inactive).

For the molecule `CC(CO)C1C[C@H](O)[C@@]2(C)CC(=O)C=C(CO)[C@@H]2C1` (some centres undefined), the GI50 in the experiment on OVCAR-5 is > 100 µM (inactive); with MDA-N, > 100 µM (inactive); in the experiment with U-251, > 100 µM (inactive); in the experiment on HCT-15, > 100 µM; in the experiment with OVCAR-4 it was > 100 µM (inactive); in the experiment with SK-MEL-2, > 100 µM (inactive). In addition, the GI50 is > 100 µM (inactive) in the experiment on SK-MEL-5; > 100 µM (inactive) in the experiment with SNB-19; > 100 µM (inactive) with COLO 205; 92 µM (inactive) with HL-60; > 100 µM (inactive) in the experiment with BT-549; > 100 µM (inactive) in the experiment on HT-29. Also, the GI50 in the experiment with NCI-H23, in the experiment on MOLT-4, in the experiment on MCF7 and in the experiment with UACC-62 was > 100 µM (inactive) in each case.

Turning to `CC(=O)OCCCCn1nncc1Cn1ccc(=O)n(Cc2cnnn2CCCCOC(C)=O)c1=O`, the GI50 in the experiment with OVCAR-5 was > 100 µM (inactive); in the experiment on MDA-N, > 100 µM (inactive); with U-251, > 100 µM (inactive); with HCT-15, > 100 µM; in the experiment with OVCAR-4, > 100 µM (inactive); with SK-MEL-2, > 100 µM (inactive). The GI50 in the experiment on SK-MEL-5 was > 100 µM (inactive); in the experiment with SNB-19, > 100 µM (inactive); in the experiment with COLO 205 it was > 100 µM (inactive); with BT-549 it was > 100 µM (inactive); in the experiment on CCRF-CEM, 0.385 µM (active); in the experiment with NCI-H23, > 100 µM (inactive). Besides, the GI50 with MOLT-4 is > 100 µM (inactive); in the experiment with MCF7, > 100 µM (inactive); in the experiment on PC-3, > 100 µM (inactive); in the experiment with UACC-62, > 10 µM (inactive); in the experiment on RPMI-8226 it was > 100 µM (inactive).

With `CN(/N=C\c1ccc2ccccc2c1)C1=NCCCN1`, the GI50 in the experiment on OVCAR-5 was 28.1 µM (inactive); with U-251 it was 20 µM (inactive); with HCT-15, 17.7 µM; in the experiment on OVCAR-4, 26.5 µM (inactive); with SK-MEL-2, 15.2 µM (inactive); in the experiment on SK-MEL-5 it was 11.9 µM (inactive). In addition, the GI50 was 12.7 µM (inactive) with COLO 205; 8.71 µM (inactive) in the experiment on HL-60; 13.8 µM (inactive) in the experiment with NCI-H522; 1.87 µM (inactive) in the experiment with BT-549; 12 µM (inactive) with HT-29; 12.7 µM (inactive) with CCRF-CEM. Moreover, the GI50 in the experiment with NCI-H23 was 25.9 µM (inactive); in the experiment on MOLT-4, 2.39 µM (inactive); in the experiment with MCF7, 3.56 µM (inactive); in the experiment on UACC-62, 14.2 µM (inactive); with RPMI-8226, 14.9 µM (inactive).

`CC(=O)OCC1OC(n2c(-c3ccccc3)c(C(C)=O)c(-c3cccc4ccccc34)c(C#N)c2=S)C(OC(C)=O)C(OC(C)=O)C1OC(C)=O` (centres undefined): the GI50 is > 100 µM (inactive) in the experiment on OVCAR-5; > 100 µM (inactive) in the experiment on MDA-N; > 100 µM (inactive) in the experiment on U-251; > 100 µM in the experiment with HCT-15; 28.7 µM (inactive) and 17.9 µM (inactive) in the experiment with OVCAR-4; > 100 µM (inactive) in the experiment on SK-MEL-2. Moreover, the GI50 in the experiment with SK-MEL-5, with SNB-19, with COLO 205, in the experiment with HL-60, with NCI-H522 and with HT-29 was > 100 µM (inactive) each time. Further, the GI50 with CCRF-CEM was > 100 µM (inactive); in the experiment with NCI-H23, > 100 µM (inactive); with MOLT-4 it was > 100 µM (inactive); in the experiment on MCF7, > 100 µM (inactive); in the experiment with PC-3, 62.2 µM (inactive).

`O=C(O)CN1CCN(CC(=O)N2CCN(C(=O)OCc3ccccc3)CC2)CCN(CC(=O)O)CCN(CC(=O)N2CCN(C(=O)OCc3ccccc3)CC2)CC1`: the GI50 in the experiment on OVCAR-5 is > 100 µM (inactive); in the experiment on U-251 it was > 100 µM (inactive); in the experiment on HCT-15, > 100 µM; in the experiment with OVCAR-4 it was > 100 µM (inactive); in the experiment on SK-MEL-2, > 100 µM (inactive); with SK-MEL-5, > 100 µM (inactive). For the same molecule, the GI50 with SNB-19, in the experiment with COLO 205, in the experiment with HL-60, in the experiment with NCI-H522, in the experiment with BT-549 and in the experiment with HT-29 was > 100 µM (inactive) throughout. Moreover, the GI50 in the experiment on CCRF-CEM, in the experiment with MOLT-4, with MCF7, in the experiment with PC-3, in the experiment with UACC-62 and with RPMI-8226 was > 100 µM (inactive) in each case.

Take `CN(C)N1C(=C(C#N)C#N)C(c2ccccc2)CC1C#N` (centres undefined): the GI50 in the experiment on OVCAR-5 is > 100 µM (inactive); in the experiment with MDA-N, > 100 µM (inactive); in the experiment on U-251, > 100 µM (inactive); in the experiment with HCT-15 it was > 100 µM; with SK-MEL-2, > 100 µM (inactive); in the experiment on SK-MEL-5, > 100 µM (inactive). Also, the GI50 in the experiment on SNB-19, in the experiment with COLO 205, with HL-60, in the experiment on NCI-H522, with HT-29 and in the experiment with CCRF-CEM was > 100 µM (inactive) throughout. Moreover, the GI50 in the experiment with NCI-H23, with MOLT-4, in the experiment on MCF7, in the experiment on PC-3, in the experiment with UACC-62 and in the experiment on RPMI-8226 was > 100 µM (inactive) each time.

Consider `C=C1C(=O)O[C@H]2/C=C(/C)C3=CC(=O)[C@@](C)(C[C@@H](OC(=O)/C(C)=C\C)C12)O3` (some centres undefined), for which the GI50 in the experiment with OVCAR-5 is 2.4 µM (inactive); with MDA-N, 0.684 µM (active); in the experiment with U-251, 2.43 µM (inactive); with HCT-15 it was 0.216 µM; with OVCAR-4, 3.95 µM (inactive); with SK-MEL-2 it was 3.02 µM (inactive). For the same molecule, the GI50 is 1.03 µM (active) with SK-MEL-5; 0.284 µM (active) in the experiment with COLO 205; < 0.0451 µM (active) with HL-60; 0.138 µM (active) with NCI-H522; 0.265 µM (active) in the experiment with HT-29; 0.0953 µM (active) in the experiment with CCRF-CEM. The GI50 was 2.42 µM (inactive) with NCI-H23; 1.87 µM (inactive) with MOLT-4; 0.36 µM (active) in the experiment with MCF7; 2.48 µM (inactive) with PC-3; 0.891 µM (active) in the experiment with UACC-62; 0.0589 µM (active) with RPMI-8226.

With `CCOC(=O)c1cc(-c2ccc(Cl)cc2)c([N+](=O)[O-])n1C`, the GI50 in the experiment on OVCAR-5 is > 10 µM (inactive); in the experiment with MDA-N, > 10 µM (inactive); in the experiment with U-251, > 10 µM (inactive); with HCT-15, > 10 µM; in the experiment on OVCAR-4, > 10 µM (inactive); with SK-MEL-2 it was > 10 µM (inactive). The GI50 with SNB-19, in the experiment on HL-60, with NCI-H522, with BT-549, in the experiment on HT-29 and in the experiment on CCRF-CEM was > 10 µM (inactive) each time. Further, the GI50 with NCI-H23 and with MOLT-4 was > 10 µM (inactive) in each case.

For `C=CCCCC1CCCNC1=O` (centres undefined), the GI50 in the experiment with OVCAR-5 is > 100 µM (inactive); in the experiment with MDA-N it was 58.5 µM (inactive); in the experiment on U-251 it was > 100 µM (inactive); in the experiment with HCT-15 it was 19 µM; with OVCAR-4 it was > 100 µM (inactive); in the experiment with SK-MEL-2 it was > 100 µM (inactive). In addition, the GI50 with SK-MEL-5, in the experiment on SNB-19, in the experiment with NCI-H522, in the experiment with BT-549, in the experiment on HT-29 and with NCI-H23 was > 100 µM (inactive) each time. Moreover, the GI50 with MOLT-4, with MCF7, with PC-3, in the experiment with UACC-62 and in the experiment with RPMI-8226 was > 100 µM (inactive) in each case.

Source of the values: ChEMBL document CHEMBL1201862, “PubChem BioAssay data set” (2004).
